Assay results from patent US20250268859A1, “OXAFURAMINE, (1R)-N-ETHYL-1-[(2R)-OXOLAN-2-YL]-2-[…], HYDROCHLORIDE AND DERIVATIVES THEREOF FOR TREATING ALZHEIMER'S DISEASE (AD), […] […], […] WITH LEWY BODIES (DLB), MIXED […], FRON[…] DEGENERATION (FTLD), AND PARKINSON'S DISEASE (PD)” (NLS Pharmaceutics AG, priority 2021, published 2025).

Key:
[1] = target: T1, GABA-A1 (Homo sapiens, UniProt P14867+P47870); test: Radioligand binding panel, GABA-A1 (antagonist radioligand); details: 10^−5 M; % inhibition of control specific binding
T1 construct: Eurofins (contract panel)
Experimental: (§1) Oxafuramine is tested at 10^−5 M, calculated as a % inhibition of control specific binding of a radioactively labeled ligand specific for each target.
(§2) This binding profile panel was broadly defined with roughly an equal number of selective, central and peripheral therapeutically relevant targets, including native animal tissues, radioligands and specific enzymes involved in cell cycle regulation in accordance with Eurofins Standard Operating Procedure (www.eurofins.fr).
(§3) For radioligand binding experiments, the half maximal inhibitory concentration (IC50) and the half maximal effective concentration (EC50) values were determined (via computer software) by nonlinear regression analysis of the competition curves using Hill equation curve fitting. The inhibition constants (Ki) were calculated using the Cheng-Prusoff equation (Ki=IC50/(1+(L/KD)), where L is the concentration of radioligand in the assay, and KD is the affinity of the radioligand for the receptor.
(§4) The results are expressed as a % control specific binding ([measured specific binding/control specific binding]×100) and as a % inhibition of control specific binding (100−[(measured specific binding/control specific binding)×100]) obtained in the presence of the test compounds. […]

[2] = test system: memory (recognition of the familiar object) in mice; test: Novel Object Recognition (NOR) test in mice; type: in vivo, C57BL/6J, male; details: choice trial, mean, N = 16
Experimental: The test was carried out in circular boxes (30 cm diameter, 40 cm high). The objects to be discriminated (L≈1≈h≈3-4 cm) differed in both color and shape and were referred as yellow duck and blue lego. They were fixed with a magnet to the floor of the boxes at 5 cm of the wall, 20 cm distant. Apparently, they have no natural significance for mice and they have never been associated with a reinforcement. In order to rule out the possibility of scent traces left on the objects and therefore the dependency of the recognition capacity of mice on the olfactory cue, the objects and the ground of the box were washed with an odorless disinfectant (Sanicid® diluted in water) and dried between each trial. A camcorder was fixed to the ceiling above the box to record the animals' activity. The experiment was analyzed blindly at a later time.
On the week before the test, animals were handled by the experimenter in charge of the experiment in order to be not stressed at the time of testing. For this purpose, the experimenter placed a small amount of litter, and then the mouse on its hand.
The NOR test was completed over five days (see FIG. 1): • Day 1: Habituation trial. Animals were individually placed for a 15-min free exploration session in empty open boxes. • Day 2. Treatment administration and sample trial. […] They were individually placed 30 min after in the apparatus for a 6-min session with two identical objects (Duck, 50% of animals or Lego, 50% of animals). • Day 3. Choice trial. The mice were individually placed for a 6-min session in the apparatus with two objects (Duck and Lego), one of the objects presented in sample trials (termed as familiar objects) and a novel object (Lego, 50% of animals or Duck, 50% of animals).
The sample and choice trials were recorded with the camera located above the apparatus. The time spent by mice in exploring the objects was measured during the sample trial and the choice trial. Exploration of an object was defined as follows: directing the nose to the object at a distance≤2 cm and/or touching it with the nose or forelimbs; turning around or biting the object, or sitting on the object were not considered as exploratory behavior.
• L=exploration time of the left object in the sample trial. • R=exploration time of the right object in the sample trial. • N=exploration time of the new object in the choice trial. • F=exploration time of the familiar object in the choice trial.
• Exploration indices: • ST=L+R=exploration time (left object+right object) in the sample trial. • CT=N+F=exploration time (new object+familiar object) in the choice trial. • Two memory indices: • N-F=difference of exploration time between the new object and the familiar object in the choice trial.
Statistical analyses: • Read-outs: DI, N-F, ST, CT, N, F • Unpaired Student's t test: Donep 2 group vs. Control group. • One-way ANOVA, Dunnett test: • NLS-12 groups vs. Control group. • NLS-12 groups vs. Donep 2 group. • Read-outs: DI and N-F, for all groups, paired Student's t test, difference vs. 0. • Body weight: one-way ANOVA.

[3] = target: T2, NET (h) (Homo sapiens, UniProt P23975); test: Radioligand binding panel, NET (h) (antagonist radioligand); details: % inhibition of control specific binding
T2 construct: Eurofins (contract panel)
Experimental: as §1, §2, §3, §4

[4] = target: T3, M1 (h) (Homo sapiens, UniProt P11229); test: Radioligand binding panel, M1 (h) (antagonist radioligand); details: % inhibition of control specific binding
T3 construct: Eurofins (contract panel)
T3 sequence (P11229 1-460): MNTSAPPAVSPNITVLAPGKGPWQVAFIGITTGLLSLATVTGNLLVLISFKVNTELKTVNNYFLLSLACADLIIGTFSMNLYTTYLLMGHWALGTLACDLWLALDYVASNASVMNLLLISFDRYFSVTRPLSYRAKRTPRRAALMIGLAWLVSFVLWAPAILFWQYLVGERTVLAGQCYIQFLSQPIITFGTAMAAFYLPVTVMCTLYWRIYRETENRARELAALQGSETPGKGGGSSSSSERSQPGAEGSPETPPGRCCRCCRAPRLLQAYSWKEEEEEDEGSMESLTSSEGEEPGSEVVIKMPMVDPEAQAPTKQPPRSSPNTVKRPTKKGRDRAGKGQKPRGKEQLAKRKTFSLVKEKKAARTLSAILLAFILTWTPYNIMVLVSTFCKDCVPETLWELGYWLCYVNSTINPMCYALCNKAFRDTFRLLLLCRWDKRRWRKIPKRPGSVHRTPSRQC
Experimental: as §1, §2, §3, §4

T2 sequence (P23975 whole entry): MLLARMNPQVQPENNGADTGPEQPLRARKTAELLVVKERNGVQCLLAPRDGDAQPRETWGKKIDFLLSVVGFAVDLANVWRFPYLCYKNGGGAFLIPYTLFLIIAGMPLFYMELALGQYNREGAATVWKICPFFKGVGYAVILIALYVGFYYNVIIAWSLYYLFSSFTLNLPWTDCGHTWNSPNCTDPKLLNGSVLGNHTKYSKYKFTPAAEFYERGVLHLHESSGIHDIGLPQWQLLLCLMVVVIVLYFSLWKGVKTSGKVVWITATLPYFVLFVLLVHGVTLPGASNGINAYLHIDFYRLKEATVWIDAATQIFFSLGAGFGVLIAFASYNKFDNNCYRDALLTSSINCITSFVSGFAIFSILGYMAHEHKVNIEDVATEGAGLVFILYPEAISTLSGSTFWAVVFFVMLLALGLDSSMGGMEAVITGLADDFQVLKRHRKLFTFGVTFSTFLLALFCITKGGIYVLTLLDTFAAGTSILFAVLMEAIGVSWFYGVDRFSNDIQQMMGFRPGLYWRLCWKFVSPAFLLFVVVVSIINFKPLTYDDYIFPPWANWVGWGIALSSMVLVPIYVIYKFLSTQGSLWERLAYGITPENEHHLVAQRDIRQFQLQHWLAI
T1 sequence (P14867 28-456): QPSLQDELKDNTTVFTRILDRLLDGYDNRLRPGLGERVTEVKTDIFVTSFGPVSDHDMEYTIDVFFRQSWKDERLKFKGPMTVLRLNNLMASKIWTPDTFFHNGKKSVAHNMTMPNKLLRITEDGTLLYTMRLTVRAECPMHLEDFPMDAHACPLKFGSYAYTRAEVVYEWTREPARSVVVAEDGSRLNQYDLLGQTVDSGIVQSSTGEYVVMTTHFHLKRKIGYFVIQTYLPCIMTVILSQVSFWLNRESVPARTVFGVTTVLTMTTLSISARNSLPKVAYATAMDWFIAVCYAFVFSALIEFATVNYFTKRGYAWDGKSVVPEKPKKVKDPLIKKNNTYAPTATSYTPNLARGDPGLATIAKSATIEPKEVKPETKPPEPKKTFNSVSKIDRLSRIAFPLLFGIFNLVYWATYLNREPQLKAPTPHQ
T1 sequence (P47870 25-512 limits assumed): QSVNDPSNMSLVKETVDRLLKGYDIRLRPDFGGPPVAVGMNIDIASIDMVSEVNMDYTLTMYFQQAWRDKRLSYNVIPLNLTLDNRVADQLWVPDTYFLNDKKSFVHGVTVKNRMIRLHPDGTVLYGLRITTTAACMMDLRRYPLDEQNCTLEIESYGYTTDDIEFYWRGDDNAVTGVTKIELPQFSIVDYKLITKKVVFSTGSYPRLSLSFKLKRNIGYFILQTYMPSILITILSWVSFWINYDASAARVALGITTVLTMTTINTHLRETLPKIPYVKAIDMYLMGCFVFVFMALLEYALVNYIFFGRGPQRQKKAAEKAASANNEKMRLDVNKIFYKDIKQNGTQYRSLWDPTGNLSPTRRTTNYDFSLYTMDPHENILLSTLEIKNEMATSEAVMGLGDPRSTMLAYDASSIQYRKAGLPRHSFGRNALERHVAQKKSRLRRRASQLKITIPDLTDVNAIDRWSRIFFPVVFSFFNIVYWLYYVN
T1 sequence (P18507 40-475 partner): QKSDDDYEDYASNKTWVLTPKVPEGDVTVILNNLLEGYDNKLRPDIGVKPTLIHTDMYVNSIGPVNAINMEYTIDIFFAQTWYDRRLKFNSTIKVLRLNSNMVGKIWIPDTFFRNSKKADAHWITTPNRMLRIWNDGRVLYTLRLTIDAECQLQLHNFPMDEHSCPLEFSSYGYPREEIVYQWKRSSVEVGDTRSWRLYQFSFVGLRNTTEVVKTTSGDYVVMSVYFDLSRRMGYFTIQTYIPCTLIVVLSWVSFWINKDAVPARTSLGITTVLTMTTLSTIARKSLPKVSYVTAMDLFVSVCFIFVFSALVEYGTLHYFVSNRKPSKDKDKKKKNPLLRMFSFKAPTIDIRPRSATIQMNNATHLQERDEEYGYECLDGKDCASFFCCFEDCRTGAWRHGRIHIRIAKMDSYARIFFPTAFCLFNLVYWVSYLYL

In the case of `CCN[C@H](Cc1ccccc1)[C@H]1CCCO1` [Oxafuramine, (1R)—N-ethyl-1-[(2R)-oxolan-2-yl]-2-phenylethanamine], the inhibition at 10 µM [1] was 19.2%, the “F Exploration time of familiar object” value ([2]; NLS-12 1 mg/kg i.p.) was 12.0 s and the “N Exploration time of novel object” value ([2]; NLS-12 1 mg/kg i.p.) was 12.6 s. The “F Exploration time of familiar object” value ([2]; NLS-12 4 mg/kg i.p.) was 11.0 s, the “N Exploration time of novel object” value ([2]; NLS-12 4 mg/kg i.p.) was 14.7 s and the “F Exploration time of familiar object” value ([2]; NLS-12 8 mg/kg i.p.) was 9.9 s. The “N Exploration time of novel object” value ([2]; NLS-12 8 mg/kg i.p.) was 15.9 s, the inhibition at 10 µM ([3]; 10^−5 M) was 53.3% and the “% Inhibition at 10^−5M, NET (h) (antagonist radioligand)” value [3] was “appreciable potencies”. For the same compound, the inhibition at 10 µM ([4]; 10^−5 M) was about 30% and the “% Inhibition at 10^−5M, M1 (h) (antagonist radioligand)” value [4] was 29.7%.
